Patent US8729224B2, “Melanocortin receptor-specific peptides for treatment of female sexual dysfunction” (Palatin Technologies, Inc., priority 2008, dated 2014)
pEC50, pKi: −log10 of the molar value.

Tests used:
[1] = target: T1, hMC5-R (Homo sapiens, UniProt P33032); test: Competitive inhibition binding assay using NDP-α-MSH, MC5-R; settings: competitive studies using NDP-α-MSH; human recombinant receptor
T1 construct: expressed in transfected cells; host or cells: HEK-293
Experimental: (§1) A competitive inhibition binding assay is performed using membrane homogenates prepared from HEK-293 cells that express recombinant hMC4-R, hMC3-R, or hMC5-R, and from B-16 mouse melanoma cells (containing endogenous MC1-R). In some instances, HEK-293 cells that express recombinant hMC1-R were employed. In the examples that follow, all MC3-R, MC4-R and MC5-R values are for human recombinant receptors. MC1-R values are for B-16 mouse melanoma cells, unless the heading is “hMC1-R”, in which case the value is for human recombinant MC1-R. Assays were performed in 96 well GF/B Millipore multiscreen filtration plates (MAFB NOB10) pre-coated with 0.5% bovine serum albumin (Fraction V). […] Filters were dried and counted in a gamma counter for bound radioactivity. […] Maximal specific binding (100%) was defined as the difference in radioactivity (cpm) bound to cell membranes in the absence and presence of 1 μM NDP-α-MSH. […] Ki values for cyclic peptides of the present invention were determined using Graph-Pad Prism® curve-fitting software. […]
(§2) Alternatively, a competitive inhibition binding assay was performed employing Eu-NDP-α-MSH (PerkinElmer Life Sciences catalog No. AD0225) with determination by time-resolved fluorometry (TRF) of the lanthanide chelate. […] The plates were incubated on a shaker for 15 minutes and read at 340 nm excitation and 615 nm emission wavelengths. […]

[2] = target: T2, MC1-R (B-16 mouse melanoma cells) (Mus musculus, UniProt Q01727); test: Competitive inhibition binding assay using NDP-α-MSH, MC1-R; settings: competitive studies using NDP-α-MSH
T2 construct: from B-16 mouse melanoma cells (containing endogenous MC1-R); endogenous in cells; host or cells: B-16 mouse melanoma cells
T2 sequence (Q01727 whole entry): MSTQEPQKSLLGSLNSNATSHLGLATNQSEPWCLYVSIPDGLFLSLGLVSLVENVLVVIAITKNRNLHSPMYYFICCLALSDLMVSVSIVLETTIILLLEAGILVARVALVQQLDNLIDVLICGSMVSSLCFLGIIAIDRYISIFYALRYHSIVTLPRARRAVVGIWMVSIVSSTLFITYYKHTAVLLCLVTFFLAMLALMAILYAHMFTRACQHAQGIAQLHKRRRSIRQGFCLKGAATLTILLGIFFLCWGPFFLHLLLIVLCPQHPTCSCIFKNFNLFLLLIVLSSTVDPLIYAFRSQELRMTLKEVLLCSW
Experimental: as §1

[3] = target: T3, hMC4-R (Homo sapiens, UniProt P32245); test: Competitive inhibition binding assay using NDP-α-MSH, MC4-R; settings: for pKi: competitive studies using NDP-α-MSH, human recombinant receptor, average of studies
T3 construct: expressed in transfected cells; host or cells: HEK-293
T3 sequence (P32245 whole entry): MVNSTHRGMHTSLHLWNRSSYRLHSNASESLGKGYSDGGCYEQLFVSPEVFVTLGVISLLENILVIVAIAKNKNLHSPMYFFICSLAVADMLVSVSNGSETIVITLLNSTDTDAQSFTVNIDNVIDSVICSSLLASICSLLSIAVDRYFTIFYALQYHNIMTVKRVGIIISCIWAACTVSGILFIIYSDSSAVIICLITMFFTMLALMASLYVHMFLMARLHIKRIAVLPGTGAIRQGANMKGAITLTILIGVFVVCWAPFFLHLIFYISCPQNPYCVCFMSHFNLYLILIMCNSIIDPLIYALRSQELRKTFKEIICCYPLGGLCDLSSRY
Experimental: A competitive inhibition binding assay is performed using membrane homogenates prepared from HEK-293 cells that express recombinant hMC4-R, hMC3-R, or hMC5-R, and from B-16 mouse melanoma cells (containing endogenous MC1-R). In some instances, HEK-293 cells that express recombinant hMC1-R were employed. In the examples that follow, all MC3-R, MC4-R and MC5-R values are for human recombinant receptors. MC1-R values are for B-16 mouse melanoma cells, unless the heading is “hMC1-R”, in which case the value is for human recombinant MC1-R. Assays were performed in 96 well GF/B Millipore multiscreen filtration plates (MAFB NOB10) pre-coated with 0.5% bovine serum albumin (Fraction V). Membrane homogenates were incubated with 0.2 nM (for hMC4-R) 0.4 nM (for MC3-R and MC5-R) or 0.1 nM (for mouse B16 MC1-R or hMC1-R) [I^125]-NDP-α-MSH (Perkin Elmer) and increasing concentrations of cyclic peptides of the present invention in buffer containing 25 mM HEPES buffer (pH 7.5) with 100 mM NaCl, 2 mM CaCl2, 2 mM MgCl2, 0.3 mM 1,10-phenanthroline, and 0.2% bovine serum albumin. After incubation for 60 minutes at 37° C., the assay mixture was filtered and the membranes washed three times with ice-cold buffer. Filters were dried and counted in a gamma counter for bound radioactivity. […] Maximal specific binding (100%) was defined as the difference in radioactivity (cpm) bound to cell membranes in the absence and presence of 1 μM NDP-α-MSH. […] Ki values for cyclic peptides of the present invention were determined using Graph-Pad Prism® curve-fitting software. […]
Alternatively, a competitive inhibition binding assay was performed employing Eu-NDP-α-MSH (PerkinElmer Life Sciences catalog No. AD0225) with determination by time-resolved fluorometry (TRF) of the lanthanide chelate. […] The plates were incubated on a shaker for 15 minutes and read at 340 nm excitation and 615 nm emission wavelengths. […] Ki values were determined by curve-fitting with Graph-Pad Prism® software using a one-site fixed-slope competition binding model. […]

[4] = tested on: penile erection in male Sprague-Dawley rats; test: Induction of penile erection in male rats; assay type: in vivo, rat; settings: for observed spontaneous erections compared to vehicle controls: rat model
[5] = target: T3, hMC4-R; test: Assay for agonist activity (cAMP accumulation in HEK-293 cells expressing hMC4-R); assay type: cell-based
Experimental: Accumulation of intracellular cAMP is examined as a measure of the ability of the cyclic peptides of the present invention to elicit a functional response in HEK-293 cells that express MC4-R. Confluent HEK-293 cells that express recombinant hMC4-R were detached from culture plates by incubation in enzyme-free cell dissociation buffer. Dispersed cells were suspended in Earle's Balanced Salt Solution containing 10 mM HEPES (pH 7.5), 1 mM MgCl2, 1 mM glutamine, 0.5% albumin and 0.3 mM 3-isobutyl-1-methyl-xanthine (IBMX), a phosphodiesterase inhibitor. The cells were plated in 96-well plates at a density of 0.5×10^5 cells per well and pre-incubated for 30 minutes. Cells were exposed for 1 hour at 37° C. to test cyclic peptides of the present invention dissolved in DMSO (final DMSO concentration of 1%) at a concentration range of 0.05-5000 nM in a total assay volume of 200 μL. NDP-α-MSH was used as the reference agonist. At the end of the incubation period, cells were disrupted by the addition of 50 μL of lysis buffer (cAMP EIA kit, Amersham) followed by vigorous pipetting. Levels of cAMP in the lysates were determined using a cAMP EIA kit (Amersham). Data analysis was performed by nonlinear regression analysis with Graph-Pad Prism® software. The maximum efficacies of the cyclic peptides of the present invention were compared to that achieved by the reference melanocortin agonist NDP-αMSH.

[6] = tested on: systolic blood pressure; settings: rat, in vivo
Description: In other studies, including comparisons of the same quantities of the cyclic peptide of Example 8.1 and bremelanotide by the same routes of administration, substantially similar results were obtained. […] In other studies, including comparisons of the same quantities of the cyclic peptide of Example 8.4 and bremelanotide by the same routes of administration, substantially similar results were obtained.

[7] = target: T4, hMC3-R (Homo sapiens, UniProt P41968); test: Competitive inhibition binding assay using NDP-α-MSH, MC3-R; settings: competitive studies using NDP-α-MSH; human recombinant receptor
T4 construct: expressed in transfected cells; host or cells: HEK-293
T4 sequence (P41968 whole entry): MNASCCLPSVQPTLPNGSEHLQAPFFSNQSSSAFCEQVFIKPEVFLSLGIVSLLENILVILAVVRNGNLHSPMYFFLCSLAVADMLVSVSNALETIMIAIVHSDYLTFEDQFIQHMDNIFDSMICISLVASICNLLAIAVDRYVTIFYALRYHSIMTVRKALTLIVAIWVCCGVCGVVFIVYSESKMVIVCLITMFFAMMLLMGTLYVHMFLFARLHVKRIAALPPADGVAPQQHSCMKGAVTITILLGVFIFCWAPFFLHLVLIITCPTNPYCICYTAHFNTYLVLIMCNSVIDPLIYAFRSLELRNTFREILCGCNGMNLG
Experimental: as §1, §2

T1 sequence (P33032 whole entry): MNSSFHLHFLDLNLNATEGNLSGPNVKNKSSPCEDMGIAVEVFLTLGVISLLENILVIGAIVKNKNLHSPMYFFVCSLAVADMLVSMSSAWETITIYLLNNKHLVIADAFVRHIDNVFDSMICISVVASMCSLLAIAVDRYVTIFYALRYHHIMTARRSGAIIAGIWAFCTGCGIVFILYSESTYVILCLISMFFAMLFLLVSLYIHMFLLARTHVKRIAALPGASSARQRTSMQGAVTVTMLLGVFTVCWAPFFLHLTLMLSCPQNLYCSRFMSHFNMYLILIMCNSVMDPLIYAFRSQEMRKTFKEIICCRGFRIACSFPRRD

pKi [1]	pKi [2]	pKi [3]	Emax ([5]; HEK293, NDP-α-MSH is 100%, read-out: intrinsic activity at MC4-R) [%]	functional status at MC4-R ([5]; functional studies)	pEC50 ([5]; functional studies, cAMP, average of studies, read-out: EC50 at MC4-R)	pKi [7]	receptor selectivity in binding ([3]; MC1-R, MC3-R, MC4-R and MC5-R binding compared)	Structure (SMILES)	penile erections per rat per hour compared to bremelanotide (companion studies) ([4]; 1 mg/kg subcutaneous vs bremelanotide 1 mg/kg IV)	observed spontaneous erections compared to vehicle controls ([4]; subcutaneous)	spontaneous erections per rat in one hour ([4]; subcutaneous, 0.3 mg/kg, n=7)	spontaneous erections per rat in one hour ([4]; subcutaneous, 1.0 mg/kg, n=7)	increase of systolic blood pressure compared to a dose of bremelanotide producing comparable penile erection results [6]	spontaneous erections per rat in one hour ([4]; IV, 1 mg/kg, n=7, positive control)	penile erections per rat per hour compared to bremelanotide (companion studies) ([4]; 3.0 μmol/kg subcutaneous vs bremelanotide 1 μmol/kg IV)
5.63	8.40	8.10	91	agonist	8.52	6.39	–	CC(=O)N[C@@H](CCCNC(=N)N)C(=O)N[C@H]1CCC(=O)NCCC[C@@H](C(=O)O)NC(=O)[C@H](Cc2c[nH]c3ccccc23)NC(=O)[C@H](CCCNC(=N)N)NC(=O)[C@@H](Cc2ccccc2)NC(=O)[C@H](CCN)NC1=O [Example 8.4, Ac-Arg-cyclo(Glu-Dab-D-Phe-Arg-Trp-Orn)-OH]	same or higher penile erection results	statistically significant increase	2.571±0.685	5.286±0.918	less increase of systolic blood pressure	–	–
–	–	–	–	–	–	–	–	CCCC[C@H](NC(C)=O)C(=O)N[C@H]1CC(=O)NCCCC[C@@H](C(=O)O)NC(=O)[C@H](Cc2c[nH]c3ccccc23)NC(=O)[C@H](CCCN=C(N)N)NC(=O)[C@@H](Cc2ccccc2)NC(=O)[C@H](Cc2cnc[nH]2)NC1=O [bremelanotide, Ac-Nle-cyclo(Asp-His-D-Phe-Arg-Trp-Lys)-OH, reference compound]	–	–	–	–	–	4±0.535	–
6.52	9.00	9.19	–	agonist	–	7.13	–	CC(=O)N[C@@H](CCCNC(=N)N)C(=O)N[C@H]1CCC(=O)NCCC[C@@H](C(N)=O)NC(=O)[C@H](Cc2c[nH]c3ccccc23)NC(=O)[C@H](CCCNC(=N)N)NC(=O)[C@@H](Cc2ccccc2)NC(=O)[C@H](CCN)NC1=O [Example 8.3, Ac-Arg-cyclo(Glu-Dab-D-Phe-Arg-Trp-Orn)-NH2]	–	–	–	–	–	–	–
–	–	–	–	agonist	–	–	selective for MC4-R	CC(=O)N[C@@H](CCCNC(=N)N)C(=O)N[C@H]1CC(=O)NCCCC[C@@H](C(N)=O)NC(=O)[C@H](Cc2c[nH]c3ccccc23)NC(=O)[C@H](CCCNC(=N)N)NC(=O)[C@@H](Cc2ccccc2)NC(=O)[C@H](CCN)NC1=O [Example 8.1, Ac-Arg-cyclo(Asp-Dab-D-Phe-Arg-Trp-Lys)-NH2]	–	statistically significant increase	2.286±0.286	4.571±1.088	less increase of systolic blood pressure	–	same or higher penile erection results
